Measurements as given in paper PMC3624605 (Journal of medicinal chemistry, 2013).

Columns and labels:
sICAM-1 = settings: 6 h cotreatment, culture supernatant
BEAS-2B cells [1] = assay: Cell detachment and morphology change; assay type: cell-based, human; settings: for Elastase-induced cell rounding (morphology change): 10 μM cotreatment, 3 h
[2] = tested on: IκB degradation and p65 nuclear translocation; settings: 3 h of cotreatment
BEAS-2B cells [3] = assay: Cell viability; assay type: cell-based, human; settings: for Protection against the antiproliferative effects of elastase: Figure 4C, caspase 3 inhibitor 10 μM pre-incubation
[4] = tested on: transcript levels in BEAS-2B cells; settings: 3 h cotreatment
[5] = tested on: caspase 3/7 activity of BEAS-2B cells; settings: 100 nM elastase; 10 μM inhibitor pre-incubation
[6] = target: Human Pancreatic Chymotrypsin (Homo sapiens, UniProt P17538); assay: In vitro protease assay, human pancreatic chymotrypsin; assay type: biochemical
panel of 68 proteases = settings: 10 μM

Sequence of Human Pancreatic Chymotrypsin (P17538 19-263): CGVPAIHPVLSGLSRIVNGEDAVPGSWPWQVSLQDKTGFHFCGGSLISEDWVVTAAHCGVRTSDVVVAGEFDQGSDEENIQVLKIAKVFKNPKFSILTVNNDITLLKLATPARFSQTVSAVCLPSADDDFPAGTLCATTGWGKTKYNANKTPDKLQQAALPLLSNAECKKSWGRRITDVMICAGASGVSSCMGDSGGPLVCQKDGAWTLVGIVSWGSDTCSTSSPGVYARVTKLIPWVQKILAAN

For `C/C=C1\NC(=O)[C@@H](NC(=O)[C@@H](NC(=O)[C@@H](COS(=O)(=O)[O-])OC)C(C)C)[C@@H](C)OC(=O)[C@H]([C@H](C)CC)NC(=O)[C@H](Cc2ccccc2)N(C)C(=O)[C@H](Cc2ccccc2)N2C(=O)[C@H](CC[C@H]2O)NC1=O.[Na+]` [Symplostatin 5 (1), Symplostatin 5], the “Concentration that decreased elastase-induced sICAM-1 level” value (sICAM-1) was no less than 1 µM, the “Elastase-induced cell rounding (morphology change)” value (BEAS-2B cells [1]) was “prevented this effect of elastase” and the “Elastase-induced IκB degradation and p65 nuclear translocation” value [2] was “dose-dependently inhibited”. The “Effect on proliferation of BEAS-2B cells” value (BEAS-2B cells [3]; up to 100 μM, with solvent control or 100 nM elastase, 24 h) was “did not significantly affect the proliferation” and the “Elastase-induced increase in IL1B transcript levels (RT-qPCR)” value [4] was “strongly abrogated”.
`COC(=O)CC[C@H](NC(=O)[C@H](CC(=O)OC)NC(=O)OCc1ccccc1)C(=O)N[C@H](C(=O)N[C@@H](CC(=O)OC)C(=O)CF)C(C)C` was tested, and the “Effect on elastase-induced increase in caspase activation” value [5] was “abrogated” and the “Protection against the antiproliferative effects of elastase” value (BEAS-2B cells [3]) was “partially protected”.
With `CC(C)(C)C(=O)Oc1ccc(S(=O)(=O)Nc2ccccc2C(=O)NCC(=O)O)cc1` [Sivelestat] the IC50 [6] was greater than 10000 nM, the “Elastase-induced cell rounding (morphology change)” value (BEAS-2B cells [1]) was “prevented this effect of elastase” and the “Concentration showing cytoprotective effect against cell detachment” value (BEAS-2B cells [1]; 12 h) was 100 µM. For the same compound, the “Protection against the antiproliferative effects of elastase” value (BEAS-2B cells [3]) was “partially protected” and the “Concentration required to completely negate elastase-induced cytotoxicity” value (BEAS-2B cells [3]; elastase co-treatment, 24 h) was 100 µM.
With `C/C=C1\NC(=O)[C@@H](NC(=O)[C@H](CCC(N)=O)NC(=O)CCCCC)[C@@H](C)OC(=O)[C@H](C(C)C)NC(=O)[C@H](Cc2ccc(O)cc2)N(C)C(=O)[C@H](Cc2ccccc2)N2C(=O)[C@H](CC[C@H]2O)NC1=O` [Lyngbyastatin 7] the “Inhibition of the serine proteases elastase, chymotrypsin and proteinase K” value (panel of 68 proteases) was “completely inhibiting”.
In the case of “elastase: exogenous elastase used to challenge BEAS-2B cells”, the IC50 (BEAS-2B cells [3]; read-out: Antiproliferative IC50 of elastase (MTT), BEAS-2B, 24 h) is reported as 77.5 ± 4.9 nM.
